SMILES | melting point
CCOC1=NNC(=O)C1=Cc1cc(C(=O)O)c[nH]1 [Example 154, 4-[(4-Carboxypyrrol-2-yl)methylene]-3-ethoxy-2-pyrazolin-5-one] | 290 to 293 °C
CCOC1=NNC(=O)C1=Cc1[nH]c(C)c(C(=O)NCCN(C)C)c1C [Example 155, 4-{[3,5-Dimethyl-4-(2-dimethylaminoethylaminocarbonyl)pyrrol-2-yl)methylene}-3-ethoxy-2-pyrazolin-5-one] | 158 to 160 °C
CCOC1=NNC(=O)C1=Cc1[nH]c(Cl)c(CC(=O)OC)c1C(=O)OC [Example 156, 4-[(5-Chloro-3-methoxycarbonyl-4-methoxycarbonylmethylpyrrol-2-yl)methylene]-3-ethoxy-2-pyrazolin-5-one] | 225 to 227 °C
CCOC1=NNC(=O)C1=Cc1[nH]cc(C)c1CCC(=O)O [Example 157, 4-{[3-(2-Carboxyethyl)-4-methylpyrrol-2-yl]methylene}-3-ethoxy-2-pyrazolin-5-one] | 255 to 257 °C
CCOC(=O)c1c(C)[nH]c(C=C2C(=O)NN=C2OCC)c1C [Example 158, 4-[(3,5-Dimethyl-4-ethoxycarbonylpyrrol-2-yl)methylene]-3-ethoxy-2-pyrazolin-5-one] | 232 to 234 °C
CCOC(=O)c1c(C)[nH]c(C=C2C(=O)NN=C2C(F)(F)F)c1C [Example 160, 4-[(3,5-Dimethyl-4-ethoxycarbonylpyrrol-2-yl)methylene]-3-trifluoromethyl-2-pyrazolin-5-one] | 252 to 254 °C
CCOC(=O)c1c(C)[nH]c(C=C2C(=O)NN=C2c2ccno2)c1C [Example 161, 4-[(3,5-Dimethyl-4-ethoxycarbonylpyrrol-2-yl)methylene]-3-(5-isoxazolyl)-2-pyrazolin-5-one] | 255 to 257 °C
CCOC(=O)c1c(C)[nH]c(C=C2C(=O)NN=C2c2cccc(N)c2)c1C [Example 162, 3-(3-Aminophenyl)-4-[(3,5-Dimethyl-4-ethoxycarbonylpyrrol-2-yl)methylene]-2-pyrazolin-5-one] | 214 to 216 °C
CCOC(=O)c1c[nH]c(C=C2C(=O)NN=C2c2cnccn2)c1-c1ccccc1 [Example 164, 4-[(4-Ethoxycarbonyl-3-phenylpyrrol-2-yl)methylene]-3-pyrazinyl-2-pyrazolin-5-one] | 255 to 257 °C
CCN(CC)Cc1c(C)[nH]c(C=C2C(=O)NN=C2c2cnccn2)c1C [Example 166, 4-[(4-Diethylaminomethyl-3,5-dimethylpyrrol-2-yl)methylene]-3-pyrazinyl-2-pyrazolin-5-one] | 242 to 244 °C
Cc1[nH]c(C=C2C(=O)NN=C2c2cnccn2)c(C)c1CN1CCCCC1 [Example 167, 4-[(3,5-Dimethyl-4-piperidinomethylpyrrol-2-yl)methylene]-3-pyrazinyl-2-pyrazolin-5-one] | 240 to 242 °C
Cc1[nH]c(C=C2C(=O)NN=C2c2ccno2)c(C)c1CN1CCCCC1 [Example 168, 4-[(3,5-Dimethyl-4-piperidinomethylpyrrol-2-yl)methylene]-3-(5-isoxazolyl)-2-pyrazolin-5-one] | 215 to 217 °C
Cc1[nH]c(C=C2C(=O)NN=C2c2ccno2)c(C)c1CN(C)C [Example 169, 4-[(3,5-Dimethyl-4-dimethylaminomethylpyrrol-2-yl)methylene]-3-(5-isoxazolyl)-2-pyrazolin-5-one] | 161 to 163 °C
Cc1[nH]c(C=C2C(=O)NN=C2c2cnccn2)cc1CN(C)C [Example 170, 4-[(5-Methyl-4-dimethylaminomethylpyrrol-2-yl)methylene]-3-pyrazinyl-2-pyrazolin-5-one] | 193 to 195 °C
Cc1[nH]c(C=C2C(=O)NN=C2C2CC2)c(C)c1CN(C)C.O=C(O)/C=C\C(=O)O [Example 174, 3-Cyclopropyl-4-[(3,5-dimethyl-4-dimethylaminomethylpyrrol-2-yl)methylene]-2-pyrazolin-5-one maleate] | 199 to 201 °C
Cc1[nH]c(C=C2C(=O)NN=C2c2cnccn2)c(C)c1C(=O)CCCl [Example 175, 4-{[4-(3-Chloropropionyl)-3,5-dimethylpyrrol-2-yl]methylene}-3-pyrazinyl-2-pyrazolin-5-one] | 213 °C (dec.)
Cc1cc(C2=NNC(=O)C2=Cc2[nH]c(C)c(CN(C)C)c2C)no1 [Example 177, 4-[(3,5-Dimethyl-4-dimethylaminomethylpyrrol-2-yl)methylene]-3-(5-methyl-3-isoxazolyl)-2-pyrazolin-5-one] | 242 to 244 °C
Cc1[nH]c(C=C2C(=O)NN=C2c2cnccn2)c(C)c1CN1CCC(O)CC1 [Example 178, 4-{[3,5-Dimethyl-4-(4-hydroxypiperidinomethyl)pyrrol-2-yl]methylene}-3-pyrazinyl-2-pyrazolin-5-one] | 255 to 257 °C
Cc1[nH]c(C=C2C(=O)NN=C2c2cnccn2)c(C)c1CN.O=C(O)/C=C\C(=O)O [Example 179, 4-[(4-Aminomethyl-3,5-dimethylpyrrol-2-yl)methylene]-3-pyrazinyl-2-pyrazolin-5-one maleate] | 205 to 208 °C

SMILES | melting point
O=C1NN=C(c2cnccn2)C1=Cc1cc(CN2CCC(Cc3ccccc3)CC2)c[nH]1 [Example 180, 4-{[4-(4-Benzylpiperidino)methylpyrrol-2-yl]methylene}-3-pyrazinyl-2-pyrazolin-5-one] | 211 to 214 °C
Cc1[nH]c(C=C2C(=O)NN=C2c2cnccn2)c(C)c1CCO [Example 181, 4-{[3,5-Dimethyl-4-(2-hydroxyethyl)pyrrol-2-yl]methylene}-3-pyrazinyl-2-pyrazolin-5-one] | 306 to 308 °C
Cc1[nH]c(C=C2C(=O)NN=C2C2CC2)c(C)c1CCO [Example 184, 3-Cyclopropyl-4-{[3,5-Dimethyl-4-(2-hydroxyethyl)pyrrol-2-yl]methylene}-2-pyrazolin-5-one] | 244 to 246 °C
CCNCCc1c(C)[nH]c(C=C2C(=O)NN=C2c2cnccn2)c1C [Example 185, 4-{[3,5-Dimethyl-4-(2-ethylaminoethyl)pyrrol-2-yl]methylene}-3-pyrazinyl-2-pyrazolin-5-one] | 192 to 194 °C
CCN(CC)CCCc1c(C)[nH]c(C=C2C(=O)NN=C2c2cnccn2)c1C [Example 186, 4-{[4-(3-Diethylaminopropyl)-3,5-dimethylpyrrol-2-yl]methylene}-3-pyrazinyl-2-pyrazolin-5-one] | 208.1 °C
Cc1[nH]c(C=C2C(=O)NN=C2c2cnccn2)c(C)c1CCCO [Example 187, 4-{[3,5-Dimethyl-4-(3-hydroxypropyl)pyrrol-2-yl]methylene}-3-pyrazinyl-2-pyrazolin-5-one] | 273 to 275 °C
CCOC1=NNC(=O)C1=Cc1[nH]c(C)c(C(=O)CN(C)C)c1C [Example 189, 4-[(3,5-Dimethyl-4-dimethylaminoacetylpyrrol-2-yl)methylene]-3-ethoxy-2-pyrazolin-5-one] | 198 °C
Cc1[nH]c(C=C2C(=O)NN=C2c2cnccn2)c(C)c1CCN(C)C [Example 191, 4-{[3,5-Dimethyl-4-(2-dimethylaminoethyl)pyrrol-2-yl]methylene}-3-pyrazinyl-2-pyrazolin-5-one] | 216 °C
Cc1[nH]c(C=C2C(=O)NN=C2c2cnccn2)c(C)c1CCCCO [Example 192, 4-{[3,5-Dimethyl-4-(4-hydroxybutyl)pyrrol-2-yl]methylene}-3-pyrazinyl-2-pyrazolin-5-one] | 222 °C
CCN(CC)CCCCc1c(C)[nH]c(C=C2C(=O)NN=C2c2cnccn2)c1C [Example 193, 4-{[4-(4-Diethylaminobutyl)-3,5-dimethylpyrrol-2-yl]methylene}-3-pyrazinyl-2-pyrazolin-5-one] | 184 °C
CCN(CC)CC(=O)c1c(C)[nH]c(C=C2C(=O)NN=C2c2cnccn2)c1C [Example 196, 4-[(4-Diethylaminoacetyl-3,5-dimethylpyrrol-2-yl)methylene]-3-pyrazinyl-2-pyrazolin-5-one] | 199 °C
Cc1cc(C(C)C)c(C=C2C(=O)NN=C2c2cnccn2)[nH]1 [Example 197, 4-[(3-Isopropyl-5-methylpyrrol-2-yl)methylene]-3-pyrazinyl-2-pyrazolin-5-one] | 244 °C
Cc1[nH]c(C=C2C(=O)NN=C2c2cnccn2)c(C(C)C)c1CN(C)C [Example 199, 4-[(Dimethylaminomethyl-3-isopropyl-5-methylpyrrol-2-yl)methylene]-3-pyrazinyl-2-pyrazolin-5-one] | 227 °C
Cc1[nH]c(C=C2C(=O)NN=C2C2CC2)c(C(C)C)c1CN(C)C [Example 200, 3-Cyclopropyl-4-[(dimethylaminomethyl-3-isopropyl-5-methylpyrrol-2-yl)methylene]-2-pyrazolin-5-one] | 190 to 192 °C
Cc1[nH]c(C=C2C(=O)NN=C2c2cnccn2)c(C)c1CCNC1CC1 [Example 203, 4-{[4-(2-Cyclopropylaminoethyl)-3,5-dimethylpyrrol-2-yl]methylene}-3-pyrazinyl-2-pyrazolin-5-one] | 210 to 218 °C
Cc1[nH]c(C=C2C(=O)NN=C2c2cnccn2)c(C)c1CCNCc1ccncc1 [Example 204, 4-{{3,5-Dimethyl-4-[2-(4-pyridylmethylamino)ethyl]pyrrol-2-yl}methylene}-3-pyrazinyl-2-pyrazolin-5-one] | 203 to 205 °C
CCN(CC)CCc1c(C)[nH]c(C=C2C(=O)NN=C2c2ncccn2)c1C [Example 206, 4-{[4-(2-Diethylaminoethyl)-3,5-dimethylpyrrol-2-yl]methylene}-3-(2-pyrimidinyl)-2-pyrazolin-5-one] | 144 to 146 °C
CCN(CC)CCc1c(C)[nH]c(C=C2C(=O)NN=C2c2cccnn2)c1C [Example 207, 4-{[4-(2-Diethylaminoethyl)-3,5-dimethylpyrrol-2-yl]methylene}-3-(3-pyridazinyl)-2-pyrazolin-5-one] | 218 to 220 °C
CCN(CC)CCc1c(C)[nH]c(C=C2C(=O)NN=C2c2ccncn2)c1C [Example 208, 4-{[4-(2-Diethylaminoethyl)-3,5-dimethylpyrrol-2-yl]methylene}-3-(4-pyrimidinyl)-2-pyrazolin-5-one] | 220 °C

Source: patent publication US7060822B1, “2-pyrazolin-5-ones” (Abbott GmbH & Co. KG, priority 1999, dated 2006)
